Test results published in US5565479A, “Condensed thiazole derivative, production process thereof and pharmaceutical composition thereof” (Yamanouchi Pharmaceutical Co., Ltd., priority 1992, dated 1996).
Structures can show the parent of a compound that is named as a salt.

Legend:
5-HT3 receptor [1] = biological target: T1, 5-HT3 receptor (Cavia porcellus, UniProt O70212); assay: 5-HT3 receptor agonistic activity: contractile response of isolated guinea pig distal colon strips; assay type: cell-based; details: read-out: Max. response
T1 construct: Distal colons were excised from male Hartley guinea pigs; from tissue; host or cells: distal colon strips of male Hartley guinea pigs
T1 sequence (O70212 20-490): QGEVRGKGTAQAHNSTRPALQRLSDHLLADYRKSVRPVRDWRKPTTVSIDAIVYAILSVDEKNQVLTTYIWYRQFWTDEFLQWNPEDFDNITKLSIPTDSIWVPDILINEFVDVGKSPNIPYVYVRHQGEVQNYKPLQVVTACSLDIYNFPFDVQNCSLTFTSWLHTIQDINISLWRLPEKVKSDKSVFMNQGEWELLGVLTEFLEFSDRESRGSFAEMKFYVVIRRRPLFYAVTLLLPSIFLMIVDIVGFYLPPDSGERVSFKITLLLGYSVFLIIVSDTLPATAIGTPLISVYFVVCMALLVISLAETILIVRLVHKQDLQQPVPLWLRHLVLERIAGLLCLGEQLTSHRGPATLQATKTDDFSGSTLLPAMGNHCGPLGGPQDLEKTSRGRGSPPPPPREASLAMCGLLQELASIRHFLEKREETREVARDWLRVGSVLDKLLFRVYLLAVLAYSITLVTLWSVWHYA
Excerpt: Distal colons were excised from male Hartley guinea pigs (500 to 800 g) to prepare strips of about 20 mm.
Each strip was longitudinally suspended in a Magnus tube, and contractile response was isometrically measured.

5-HT3 receptor [2] = assay: Receptor binding experiment
ICR male mice = assay: Toxicity after i.v. administration to ICR male mice; assay type: in vivo; details: 100 mg/kg i.v., 8 to 9 weeks of age, n=5 to 6
Excerpt: Being low in toxicity, the compounds of the present invention are suitable for use as medicines.

SMILES | Emax (5-HT3 receptor [1]) [%] | affinity for the 5-HT3 receptor (5-HT3 receptor [2]) | side effects (ICR male mice)
c1ccc2c(c1)Cc1sc(Cc3c[nH]cn3)nc1-2 [Example 1, 2-(4-imidazolylmethyl)-8H-indeno[1,2-d]thiazole] | 89.9 | high affinity | do not cause serious grave side effects
c1ccc2c(c1)ccc1sc(Cn3ccnc3)nc12 [Example 30, 2-(1-imidazolylmethyl)naphtho[1,2-d]thiazole] | 78.2 | – | –
O=C(O)/C=C/C(=O)O.c1ccc2c(c1)CCc1sc(Cc3c[nH]cn3)nc1-2 [Example 3, 2-(4-Imidazolylmethyl)-4,5-dihydronaphtho[1,2-d]thiazole fumarate] | 80.3 | – | do not cause serious grave side effects
c1ccc2c(c1)Cc1sc(Cn3ccnc3)nc1-2 [Example 10, 2-(1-Imidazolylmethyl)-8H-indeno[1,2-d]thiazole fumarate] | 60.9 | – | –
c1ccc2c(c1)CCCc1sc(Cc3c[nH]cn3)nc1-2 [Example 4, 2-(4-Imidazolylmethyl)-5,6-dihydro-4H-benzo[6,7]-cyclohepto[1,2-d]thiazole fumarate] | 50 | – | –
Cn1cncc1Cc1nc2c(s1)Cc1ccccc1-2 [Example 15, 2-[(1-Methyl-5-imidazolyl)methyl]-8H-indeno[1,2-d]thiazole] | 42.6 | – | –
